Reference: ChEMBL document CHEMBL1153077, “Highly tractable, sub-nanomolar non-steroidal glucocorticoid receptor agonists” (Bioorg Med Chem Lett, 2009)

Key:
[1] = Selectivity ratio of pIC50 for progesterone receptor to pIC50 for human glucocorticoid receptor
[2] = Selectivity ratio of pIC50 for estrogen receptor to pIC50 for human glucocorticoid receptor
Glucocorticoid receptor = molecular target: T1, Glucocorticoid receptor (Homo sapiens, UniProt P04150)
T1 sequence (P04150 whole entry): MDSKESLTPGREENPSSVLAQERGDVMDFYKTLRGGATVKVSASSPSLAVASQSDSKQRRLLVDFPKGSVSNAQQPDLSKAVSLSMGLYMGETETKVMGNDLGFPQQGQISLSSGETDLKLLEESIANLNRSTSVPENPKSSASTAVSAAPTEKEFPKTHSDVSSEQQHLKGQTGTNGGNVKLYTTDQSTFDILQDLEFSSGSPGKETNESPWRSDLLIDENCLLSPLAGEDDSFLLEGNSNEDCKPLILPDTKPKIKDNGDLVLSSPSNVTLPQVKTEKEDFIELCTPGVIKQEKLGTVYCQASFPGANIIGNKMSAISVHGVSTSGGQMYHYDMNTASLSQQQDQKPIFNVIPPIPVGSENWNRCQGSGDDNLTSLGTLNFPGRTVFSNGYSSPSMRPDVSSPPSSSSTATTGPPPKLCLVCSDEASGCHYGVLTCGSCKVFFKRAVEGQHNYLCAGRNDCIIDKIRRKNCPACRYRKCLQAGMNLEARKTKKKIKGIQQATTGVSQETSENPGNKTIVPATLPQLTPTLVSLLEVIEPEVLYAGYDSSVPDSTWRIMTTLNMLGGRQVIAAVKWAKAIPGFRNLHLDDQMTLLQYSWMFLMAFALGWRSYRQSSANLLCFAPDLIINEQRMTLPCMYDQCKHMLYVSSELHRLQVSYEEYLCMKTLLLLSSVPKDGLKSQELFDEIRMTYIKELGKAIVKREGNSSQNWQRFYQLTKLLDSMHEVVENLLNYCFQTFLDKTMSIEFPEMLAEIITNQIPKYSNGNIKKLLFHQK
Description: Agonist activity at GR in human A549 cells by NF-kappaB transrepression assay

[3] = Selectivity ratio of pIC50 for androgen receptor to pIC50 for human glucocorticoid receptor

Row | SMILES | Ratio pIC50 [1] | Ratio pIC50 [2] | IC50 (Glucocorticoid receptor) [nM] | Ratio pIC50 [3]
1 | CN(CC(O)(CNc1cccc2c1cnn2-c1ccccc1)C(F)(F)F)C(=O)c1ccccc1 (racemic) | > 50 | > 50 | 5.01 | > 50
2 | CCN(CC(O)(CNc1cc(C)cc2c1cnn2-c1ccc(F)cc1)C(F)(F)F)C(=O)c1ccccc1F (racemic) | > 50 | > 50 | 0.2 | > 50
3 | CCN(CC(O)(CNc1cccc2c1cnn2-c1ccc(F)cc1)C(F)(F)F)C(=O)c1ccccc1C (racemic) | > 50 | > 50 | 0.316 | > 50
4 | CCN(CC(O)(CNc1cccc2c1cnn2-c1ccc(F)cc1)C(F)(F)F)C(=O)c1c(Cl)cccc1Cl (stereo in doubt; 38E1) [listing 1 of 2 here] | > 50 | > 50 | – | > 50
5 | CCC1(CC(O)(CNC(=O)c2cnn(-c3ccccc3)c2N)C(F)(F)F)CCCc2ccccc21 (racemic) | – | – | 1.58 | –
6 | CCN(CC(O)(CNc1cccc2c1cnn2-c1ccc(F)cc1)C(F)(F)F)C(=O)c1c(Cl)cccc1Cl (racemic) [listing 1 of 2 here] | > 50 | > 50 | – | > 50
7 | CCN(CC(O)(CNc1cccc2c1cnn2-c1ccccc1)C(F)(F)F)S(=O)(=O)c1ccc(F)cc1 (racemic) | > 50 | > 50 | 7.94 | > 50
8 | CCN(CC(O)(CNc1cccc2c1cnn2-c1ccc(F)cc1)C(F)(F)F)C(=O)c1c(Cl)cccc1Cl (stereo in doubt; 38E2) [listing 1 of 2 here] | > 50 | > 50 | – | > 50
9 | CCN(CC(O)(CNc1cc(C)cc2c1cnn2-c1ccccc1)C(F)(F)F)C(=O)c1ccccc1F (racemic) | > 50 | > 50 | 0.251 | > 50
10 | CCN(CC(O)(CNc1cccc2c1cnn2-c1ccc(F)cc1)C(F)(F)F)C(=O)c1ccccc1F (racemic) [listing 1 of 2 here] | – | – | 0.2 | –
11 | CCCN(CC(O)(CNc1cccc2c1cnn2-c1ccccc1)C(F)(F)F)C(=O)c1ccccc1 (racemic) | > 50 | > 50 | 3.16 | > 50
12 | CCN(CC(O)(CNc1cccc2c1cnn2-c1ccccc1)C(F)(F)F)C(=O)c1ccccc1 (racemic) | > 50 | > 50 | 0.794 | > 50
13 | CCN(CC(O)(CNc1cccc2c1cnn2-c1ccccc1)C(F)(F)F)C(=O)c1ccccc1F (racemic) | > 50 | > 50 | 0.316 | > 50
14 | CCN(CC(O)(CNc1cccc2c1cnn2-c1ccc(F)cc1)C(F)(F)F)C(=O)c1ccccc1F (stereo in doubt; 32E2) [listing 1 of 2 here] | > 50 | > 50 | – | > 50
15 | CCN(CC(O)(CNc1cccc2c1cnn2-c1ccc(F)cc1)C(F)(F)F)C(=O)c1c(F)cccc1F (racemic) | > 50 | > 50 | 0.316 | > 50
16 | CCN(CC(O)(CNc1cc(C)cc2c1cnn2-c1ccccc1)C(F)(F)F)C(=O)c1ccccc1 (racemic) | > 50 | > 50 | 0.398 | > 50
17 | CCN(CC(O)(CNc1nc(C)nc2c1cnn2-c1ccccc1)C(F)(F)F)S(=O)(=O)c1ccc(F)cc1 (racemic) | > 50 | > 50 | 25.1 | > 50
18 | CCN(CC(O)(CNc1cccc2c1cnn2-c1ccc(F)cc1)C(F)(F)F)C(=O)c1ccccc1F (stereo in doubt; 32E1) [listing 1 of 2 here] | – | – | 0.126 | –
19 | CCN(CC(O)(CNc1cccc2c1cnn2-c1ccccc1)C(F)(F)F)S(=O)(=O)c1ccccc1 (racemic) | > 50 | > 50 | 2.51 | > 50
20 | CCN(CC(O)(CNc1cccc2c1cnn2-c1ccc(F)cc1)C(F)(F)F)C(=O)c1ccccc1Cl (racemic) | > 50 | > 50 | 0.251 | > 50
21 | CCN(CC(O)(CNc1cc(C)cc2c1cnn2-c1ccc(F)cc1)C(F)(F)F)C(=O)c1ccccc1 (racemic) | > 50 | > 50 | 0.398 | > 50
22 | CCN(CC(O)(CNC(=O)c1cnn(-c2ccccc2)c1N)C(F)(F)F)S(=O)(=O)c1ccc(F)cc1 (racemic) | > 50 | > 50 | 31.6 | > 50
23 | CCN(CC(O)(CNc1cccc2c1cnn2-c1ccc(F)cc1)C(F)(F)F)C(=O)c1c(Cl)cccc1Cl (stereo in doubt; 38E2) [listing 2 of 2 here] | – | – | 10 | –
24 | CCN(CC(O)(CNc1cccc2c1cnn2-c1ccc(F)cc1)C(F)(F)F)C(=O)c1ccccc1F (stereo in doubt; 32E2) [listing 2 of 2 here] | – | – | 31.6 | –
25 | CCN(CC(O)(CNc1cccc2c1cnn2-c1ccc(F)cc1)C(F)(F)F)C(=O)c1ccccc1F (stereo in doubt; 32E1) [listing 2 of 2 here] | > 50 | > 50 | – | > 50
26 | CCN(CC(O)(CNc1cccc2c1cnn2-c1ccc(F)cc1)C(F)(F)F)C(=O)c1c(C)cccc1C (racemic) | > 50 | > 50 | 0.501 | > 50
27 | CCN(CC(O)(CNc1cccc2c1cnn2-c1ccc(F)cc1)C(F)(F)F)C(=O)c1ccccc1 (racemic) | > 50 | > 50 | 0.794 | > 50
28 | CCN(CC(O)(CNc1cccc2c1cnn2-c1ccc(F)cc1)C(F)(F)F)C(=O)c1c(Cl)cccc1Cl (stereo in doubt; 38E1) [listing 2 of 2 here] | – | – | 0.0794 | –
29 | CCN(CC(O)(CNc1cccc2c1cnn2-c1ccc(F)cc1)C(F)(F)F)C(=O)c1ccccc1F (racemic) [listing 2 of 2 here] | > 50 | > 50 | – | > 50
30 | CCN(CC(O)(CNc1cccc2c1cnn2-c1ccc(F)cc1)C(F)(F)F)C(=O)c1c(Cl)cccc1Cl (racemic) [listing 2 of 2 here] | – | – | 0.126 | –
